{
  "source": "patent US12324843B2",
  "about": "“Compositions and methods for delivery of biomacromolecule agents” (The Regents of the University of Michigan, priority 2015, dated 2025)",
  "experiment": "Lymph node draining study (IVIS)",
  "type": "in vivo, C57BL/6 mice",
  "conditions": "31 nmol s.c. at tail base, after 1 day",
  "description": "sHDL-[…](FITC)L was prepared as described above. Female C57BL/6 mice of age 6-8 weeks were purchased from Harlan Laboratories. C57BL/6 mice were subcutaneously injected with free […](FITC)L or sHDL-[…](FITC)L. 24 hours after injection, mice were euthanized by carbon dioxide inhalation and axillary lymph nodes and inguinal lymph nodes were harvested and imaged with IVIS optical imaging system (Caliper Lifesciences).\nFor lymph node draining studies, C57BL/6 mice were injected with free CSSSIINFBK(FITC)L, sHDL-CSSSIINFBK(FITC)L, free Cho-CpG(Cy5), or sHDL-Cho-CpG(Cy5). After 24 h, inguinal lymph nodes were harvested, and FITC or Cy5 fluorescence signal was measured with IVIS optical imaging system (Caliper Life Sciences).",
  "note": "Residues, ends and D or L forms follow the SMILES beside them. *: point of attachment. FITC = O=C1OC2(c3ccc(O)cc3Oc3cc(O)ccc32)c2ccc(NC(=S)*)cc21",
  "data": [
    {"smiles": "CC[C@H](C)[C@H](NC(=O)[C@H](CO)NC(=O)[C@H](CO)NC(=O)[C@H](CO)NC(=O)[C@@H](N)CS)C(=O)N[C@H](C(=O)N[C@@H](CC(N)=O)C(=O)N[C@@H](Cc1ccccc1)C(=O)N[C@@H](CCC(=O)O)C(=O)N[C@@H](CCCCNC(=S)Nc1ccc2c(c1)C(=O)OC21c2ccc(O)cc2Oc2cc(O)ccc21)C(=O)N[C@@H](CC(C)C)C(=O)O)[C@@H](C)CC", "note": "[free CSS-SIINFEK(FITC)L] (H-CSSSIINFEK(FITC)L-OH)", "values": [
      {"measurement": "FITC signal in inguinal dLNs", "result": "minimal FITC signal in inguinal dLNs"}
    ]}
  ]
}
